Results reported in PubChem BioAssay (NCI).
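Test compounds were applied to cells in 96-well plates for 48 hours at 5 doses. Abbreviation: GI50, concentration required for 50% inhibition of growth. TGI denotes the concentration required for complete inhibition of growth.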

Legend:
Test in all cases: DTP human tumour cell line panel, 48 h
A549 NSCLC = tested on: A549 NSCLC
LOX IMVI melanoma = tested on: LOX IMVI melanoma
HT29 colon = tested on: HT29 colon
DU-145 prostate = tested on: DU-145 prostate
CCRF-CEM leukemia = tested on: CCRF-CEM leukemia
UACC-257 melanoma = tested on: UACC-257 melanoma
TK-10 renal = tested on: TK-10 renal
SK-MEL-28 melanoma = tested on: SK-MEL-28 melanoma
RPMI-8226 leukemia = tested on: RPMI-8226 leukemia
786-0 renal = tested on: 786-0 renal

SMILES	GI50 (A549 NSCLC)	TGI (A549 NSCLC)	GI50 (LOX IMVI melanoma)	TGI (LOX IMVI melanoma)	TGI (HT29 colon)	GI50 (DU-145 prostate)	TGI (DU-145 prostate)	GI50 (CCRF-CEM leukemia)	TGI (CCRF-CEM leukemia)	GI50 (UACC-257 melanoma)	TGI (UACC-257 melanoma)	GI50 (TK-10 renal)	TGI (TK-10 renal)	TGI (SK-MEL-28 melanoma)	GI50 (RPMI-8226 leukemia)	TGI (RPMI-8226 leukemia)	GI50 (786-0 renal)	TGI (786-0 renal)	GI50 (HT29 colon)	GI50 (SK-MEL-28 melanoma)
CCC1(O)C(=O)OCc2c1cc1n(c2=O)Cc2cc3c(NC(=O)CN)cccc3nc2-1 (stereo not drawn)	1200 nM	> 67700 nM	146 nM	4080 nM	> 79300 nM	348 nM	> 20200 nM	20.8 nM	1430 nM	2090 nM	24300 nM	38700 nM	> 97600 nM	> 100000 nM	1690 nM	40300 nM	194 nM	2480 nM		
COC(=O)[C@H]1CCCN1C(=O)[C@H]1CCCN1C(=O)[C@@H](Cc1c[nH]c2ccccc12)NC(=S)Nc1cc(C(F)(F)F)cc(C(F)(F)F)c1	1830 nM	4520 nM	1650 nM	3050 nM	3650 nM	2600 nM	6790 nM	3140 nM	> 100000 nM	1850 nM	4260 nM	2210 nM	5620 nM	4170 nM	2340 nM	6380 nM	1830 nM	3290 nM	1750 nM	2070 nM
C#CCNC(=O)[C@H](CC)[C@H]1CC[C@H](C)[C@H]([C@@H](C)[C@H](O)[C@H](C)C(=O)[C@H](CC)C2O[C@]3(C=CC(=O)[C@]4(CC[C@@](C)([C@H]5CC[C@](O)(CC)[C@H](C)O5)O4)O3)[C@H](C)C[C@@H]2C)O1 (stereo partly drawn)	2610 nM	11200 nM	2060 nM	4830 nM	5460 nM	2410 nM	6320 nM	2760 nM	19300 nM	1940 nM	4880 nM	2350 nM	7740 nM	3960 nM	1770 nM	4900 nM	2670 nM	8190 nM	2260 nM	1870 nM
COC1C(O)C(CO)OC(OC2C(O)COC(OC3C(C)OC(OC4C(O[C@H]5CC[C@@]6(C)C(CC=C7[C@H]6CCC68C(=O)O[C@@](C)(CCCC(C)C)[C@H]6[C@@H](OC(C)=O)C[C@@]78C)C5(C)C)OCC(OS(=O)(=O)O)C4O)C(OC4OCC(O)C(O)C4O)C3O)C2O)C1O (stereo partly drawn)	56.8 nM	209 nM	164 nM	357 nM	221 nM	209 nM	656 nM	225 nM	775 nM	1510 nM	3540 nM	333 nM	855 nM	2140 nM	163 nM	402 nM	134 nM	349 nM	79.5 nM	495 nM
COC1=C(OC)C(=O)C(SC/C=C(\C)CCCC(C)CCCC(C)CCCC(C)C)=CC1=O (stereo not drawn)	2830 nM	> 100000 nM	488 nM	> 100000 nM	> 100000 nM	4270 nM	> 100000 nM	1190 nM	> 100000 nM	2710 nM	> 100000 nM	2460 nM	> 59400 nM	> 100000 nM	126 nM	2880 nM	11200 nM	> 100000 nM	4240 nM	1040 nM
Nc1nc(Nc2ccccc2SSc2ccccc2Nc2nc(N)nc(C(Cl)(Cl)Cl)n2)nc(C(Cl)(Cl)Cl)n1	2950 nM	10800 nM	1680 nM	3130 nM	79700 nM	9570 nM	24400 nM	3230 nM	14000 nM	11700 nM	92900 nM	4850 nM	17200 nM	23600 nM	2940 nM	10200 nM	7000 nM	19900 nM	22300 nM	10900 nM
